Entries after “also recorded” stand apart in the source; their conditions may differ. Ends that are not written are not given here.
Assays:
[1] = system: microorganisms; test: Morphology, biofilm and growth disrupting peptides (Table 5); type: cell-based; set-up: key: A: Peptide aggregates; B: Less hyphal formation; Clumps; Diffuse clumps and small polyps; F: Diffuse growth; H: Thin; I: Growth inhibition; Microcolony formation; Rippled; Small polyps; Thick; W: Halo formation on top, microlonies on bottom
Description: In certain embodiments peptides that induce alterations in phenotype or other biological activities can also be used as antimicrobial effector moieties.

[2] = system: microorganisms; test: Targeting peptide binding to target microorganisms (Tables 3, 10, 12); settings: microorganism(s) the targeting peptide binds, preferably 1x PBS
[3] = system: microorganisms; test: Peptide activities: targeting/binding, antimicrobial, growth or phenotype altering (Tables 7, 8); type: cell-based; settings: peptides having multiple activities
[4] = system: C. difficile; test: MIC test / antimicrobial activity, C. difficile; type: cell-based, Clostridium difficile
Procedure: (§1) The active AMPs, STAMPs and the like can be identified and/or validated using an in vitro screening assay.
(§2) It will be appreciated that other assays as are well known in the art or that will become apparent to those having skill in the art upon review of this disclosure may also be used to identify active AMPs. Such assays include, for example, the assay described in Lehrer et al. (1988) J. Immunol.
(§3) Peptides were evaluated for basic antimicrobial activity by broth microdilution, as described previously (Eckert et al. (2006) Antimicrob Agents Chemother., 50: 3651-3657; Eckert et al. (2006) Antimicrob Agents Chemother., 50: 1480-1488). Briefly, ˜1×10^5 cfu/mL bacteria were diluted in TH (S. mutans), or Mueller-Hinton (MH) broth (all other organisms) and distributed to 96-well plates. Serially-diluted (2-fold) peptides were then added and the plates incubated at 37° C. for 18-24 h. […] All experiments were conducted 10 times.

[5] = system: P. aeruginosa; test: MIC test (broth microdilution) / antimicrobial activity, P. aeruginosa; type: cell-based, Pseudomonas aeruginosa; settings: P. aeruginosa
Procedure: as §1, §2, §3

[6] = system: MRSA; test: MIC test / antimicrobial activity, MRSA; type: cell-based, Methicillin-resistant Staphylococcus aureus
Procedure: as §1, §2, §3

[7] = system: S. mutans; test: MIC test (broth microdilution) / antimicrobial activity, S. mutans; type: cell-based, Streptococcus mutans
Procedure: as §1, §2, §3

[8] = system: S. epidermidis; test: MIC test (broth microdilution) / antimicrobial activity, S. epidermidis; type: cell-based, Staphylococcus epidermidis; settings: S. epidermidis
Procedure: as §1, §2, §3

[9] = system: A. niger; test: MIC test / antimicrobial activity, A. niger; type: cell-based, Aspergillus niger
Procedure: as §1, §2, §3

[10] = system: S. pneumoniae; test: MIC test / antimicrobial activity, S. pneumoniae; type: cell-based, Streptococcus pneumoniae
Procedure: as §1, §2, §3

[11] = system: A. baumannii; test: MIC test / antimicrobial activity, A. baumannii; type: cell-based, Acinetobacter baumannii
Procedure: as §1, §2, §3

[12] = system: T. rubrum; test: MIC test / antimicrobial activity, T. rubrum; type: cell-based, Trichophyton rubrum
Procedure: as §1, §2, §3

[13] = system: C. albicans; test: MIC test / antimicrobial activity, C. albicans; type: cell-based, Candida albicans
Procedure: as §1, §2, §3

[14] = system: B. subtilis; test: MIC test / antimicrobial activity, B. subtilis; type: cell-based, Bacillus subtilis; settings: B. subtilis
Procedure: as §1, §2, §3

[15] = binding in aqueous buffers varied with peptide solubility

Substance | Organism, effect ([1]; S. pneumoniae) | Target(s) [2, 15] | Activities [3] | Organism MIC (μM) [6] | Organism MIC (μM) [9] | Organism MIC (μM) [10] | Organism, effect: S. epidermidis ([1]; S. epidermidis) | Organism MIC (μM) [14] | other results
FELVDWLETNLGKILKSKSA-NH2 [PF-522] | S. pneumoniae (H) | S. epidermidis; also recorded: E. coli; also recorded: P. aeruginosa; also recorded: S. pneumoniae; also recorded: E. faecalis | G B M | – | – | – | – | – | Organism MIC (μM) [4]: C. difficile, 25 μM
FIRKFLQKLHL [K-16] | – | – | – | MRSA, 25 μM | – | – | – | – | Organism MIC (μM) [5]: P. aeruginosa, 12.5 μM; Organism MIC (μM) [7]: S. mutans, 8 μM
KFQGEFTNIGQSYIVSASHMSTSLNTGK [PF-583] | S. pneumoniae (D) | – | G B M | MRSA, 50 μM | – | – | – | – | Organism MIC (μM) [8]: S. epidermidis, 50 μM; Organism, effect ([1]; MRSA): MRSA (I); Organism, effect ([1]; S. epidermidis): S. epidermidis (I); Organism, effect ([1]; S. mutans): S. mutans (F)
KFSDQIDKGQDALKDKLGDL [PF-525] | S. pneumoniae (H) | – | G M | – | A. niger, 50 μM | S. pneumoniae, 50 μM | – | – | –
KNKKQTDILEKVKEILDKKKKTKSVGQKLY [PF-538] | S. pneumoniae (H) | – | G M | – | – | – | – | – | Organism MIC (μM) [11]: A. baumannii, 25 μM; Organism MIC (μM) [4]: C. difficile, 25 μM
LSEMERRRLRKRA-NH2 [PF-529] | S. pneumoniae (H) | S. epidermidis and E. coli and C. albicans and MRSA and S. pneumoniae and E. faecalis and C. jeikeium | G B M | – | A. niger, 50 μM | S. pneumoniae, 50 μM | – | – | –
LSLATFAKIFMTRSNWSLKRFNRL [PF-278] | – | M. luteus; also recorded: A. baumannii | G B M | – | – | – | S. epidermidis (I) | – | Organism MIC (μM) [8]: S. epidermidis, 50 μM; Organism, effect: C. albicans ([1]; C. albicans): C. albicans (B); Organism, effect: M. luteus [1]: M. luteus (R); Organism MIC (μM) [12]: T. rubrum, 50 μM; Organism MIC (μM) [13]: C. albicans, 50 μM
MGIIAGIIKFIKGLIEKFTGK [PF-006] | – | – | G B M | MRSA, 50 μM | – | – | S. epidermidis (D) | B. subtilis, 25 μM | Organism, effect: B. subtilis ([1]; B. subtilis): B. subtilis (I); Organism, effect: C. jejuni [1]: C. jejuni (D); Organism, effect: M. luteus [1]: M. luteus (A); Organism, effect: MRSA ([1]; MRSA): MRSA (I); Organism, effect: S. pneumoniae ([1]; S. pneumoniae): S. pneumoniae (R); Target(s) ([2]; binding in aqueous buffers that varied with peptide solubility): S. epidermidis and M. luteus and E. coli and P. aeruginosa and MRSA and E. faecalis and C. jeikeium and C. jejuni; Organism MIC (μM) [11]: A. baumannii, 50 μM
MIRIRSPTKKKLNRNSISDWKSNTSGRFFY [PF-283] | – | B. subtilis; also recorded: B. fragilis; also recorded: C. difficile | G B M | – | – | – | S. epidermidis (H) | B. subtilis, 50 μM | Organism MIC (μM) [8]: S. epidermidis, 50 μM; Organism, effect: B. subtilis ([1]; B. subtilis): B. subtilis (H); Organism MIC (μM) [12]: T. rubrum, 50 μM
MKRRRCNWCGKLFYLEEKSKEAYCCKECRKKAKKVKK [PF-307] | – | S. epidermidis; also recorded: B. subtilis; also recorded: B. fragilis; also recorded: C. difficile | G B M | – | – | – | S. epidermidis (T) | B. subtilis, 50 μM | Organism, effect: B. subtilis ([1]; B. subtilis): B. subtilis (H); Organism, effect: C. albicans ([1]; C. albicans): C. albicans (B); Organism MIC (μM) [12]: T. rubrum, 50 μM; Organism MIC (μM) [13]: C. albicans, 50 μM
NYAVVSHT [PF-209] | – | C. albicans; also recorded: C. jeikeium; also recorded: C. jejuni | G B M | MRSA, 50 μM | – | – | S. epidermidis (C) | – | Organism, effect: MRSA ([1]; MRSA): MRSA (I); Organism, effect: P. aeruginosa [1]: P. aeruginosa (H)
PDAPRTCYHKPILAALSRIVVTDR [PF-524] | S. pneumoniae (M) | S. epidermidis and E. coli and P. aeruginosa and C. albicans and MRSA and S. pneumoniae and E. faecalis and C. jeikeium | G B M | – | – | S. pneumoniae, 50 μM | – | – | Organism, effect ([1]; E. coli): E. coli (M); Organism, effect ([1]; E. faecalis): E. faecalis (C); Organism, effect ([1]; MRSA): MRSA (C)
RESKLIAMADMIRRRI-NH2 [PF-545] | – | S. epidermidis; also recorded: E. coli; also recorded: P. aeruginosa; also recorded: S. pneumoniae; also recorded: E. faecalis; also recorded: C. jeikeium | G B M | MRSA, 50 μM | A. niger, 50 μM | – | – | B. subtilis, 25 μM | Organism, effect ([1]; B. subtilis): B. subtilis (I); Organism, effect ([1]; C. albicans): C. albicans (B); Organism, effect ([1]; C. jeikeium): C. jeikeium (H); Organism, effect ([1]; E. faecalis): E. faecalis (H)
RRGCTERLRRMARRNAWDLYAEHFY [PF-148] | – | – | G B M | – | A. niger, 50 μM | – | S. epidermidis (D) | B. subtilis, 50 μM | Organism, effect: B. subtilis ([1]; B. subtilis): B. subtilis (I); Organism, effect: C. albicans ([1]; C. albicans): C. albicans (B); Organism, effect: C. jeikeium ([1]; C. jeikeium): C. jeikeium (H); Organism, effect: C. jejuni [1]: C. jejuni (H); Organism, effect: M. luteus [1]: M. luteus (A); Organism, effect: MRSA ([1]; MRSA): MRSA (C); Organism, effect: S. pneumoniae ([1]; S. pneumoniae): S. pneumoniae (R)
SFMPEIQKNTIPTQMK [PF-512] | S. pneumoniae (H) | S. pneumoniae; also recorded: C. jeikeium | G B M | – | – | S. pneumoniae, 50 μM | – | – | –
SKFKVLRKIIIKEYKGELMLSIQKQR [PF-530] | S. pneumoniae (R) | – | G M | – | – | – | – | – | Organism, effect ([1]; E. coli): E. coli (R); Organism, effect ([1]; E. faecalis): E. faecalis (C); Organism, effect ([1]; MRSA): MRSA (C); Organism, effect ([1]; S. epidermidis): S. epidermidis (H); Organism MIC (μM) [11]: A. baumannii, 25 μM
SLQSQLGPCLHDQRH [PF-448] | S. pneumoniae (I) | S. epidermidis; also recorded: M. luteus; also recorded: P. mirabilis; also recorded: E. coli; also recorded: S. pneumoniae; also recorded: E. faecalis; also recorded: C. jeikeium; also recorded: C. jejuni | G B M | – | A. niger, 25 μM | S. pneumoniae, 50 μM | – | – | –
VLPFPAIPLSRRRACVAAPRPRSRQRAS [PF-168] | – | S. epidermidis and M. luteus and E. coli and C. albicans and MRSA and C. jeikeium and C. jejuni | G B M | MRSA, 50 μM | A. niger, 50 μM | – | – | – | Organism, effect: MRSA ([1]; MRSA): MRSA (I); Organism, effect: P. aeruginosa [1]: P. aeruginosa (H); Organism MIC (μM) [12]: T. rubrum, 50 μM
VMQSLYVKPPLILVTKLAQQN [PF-511] | S. pneumoniae (H) | E. coli; also recorded: P. aeruginosa; also recorded: S. pneumoniae; also recorded: C. jeikeium | G B M | – | – | S. pneumoniae, 50 μM | – | – | –
WSRVPGHSDTGWKVWHRW-NH2 [PF-547] | – | S. epidermidis and E. coli and P. aeruginosa and C. albicans and MRSA and S. pneumoniae and E. faecalis | G B M | – | – | – | – | B. subtilis, 25 μM | Organism, effect ([1]; B. subtilis): B. subtilis (I); Organism, effect ([1]; E. faecalis): E. faecalis (R); Organism, effect ([1]; MRSA): MRSA (M); Organism, effect ([1]; S. epidermidis): S. epidermidis (R); Organism MIC (μM) [7]: S. mutans, 12.5 μM; Organism MIC (μM) [12]: T. rubrum, 25 μM
